The results in this text go back to patent publication US9249125B2, “Pyrazole derivatives as p38 MAP inhibitors” (RESPIVERT LIMITED, priority 2012, dated 2016).

A word on the IC50: it is the concentration that gives 50% inhibition.

Where only a bound is given, the exact number is not on record here.

Data set [1] deals with LPS-induced TNFα release in d-U937 cells. Put plainly: LPS-induced TNFα release in d-U937 cells. It is filed as cell-based. To be noted: Homo sapiens, dU937, relative to 10 μg/mL BIRB796, read-out: LPS Induced Release of Cytokine in d-937 Cells TNFα REC50. In short, it runs like this:
(§1)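 PMA-differentiated (100 ng/mL, 48–72 hr) U937 cells pre-incubated with compound 2 hr, then stimulated with LPS (0.1 μg/mL, E. coli O111:B4) for 4 hr. Supernatant TNFα and IL-8 measured by sandwich ELISA; inhibition versus vehicle control, REC50 from concentration-response curve.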

The next data set relates to d-U937 cells. Put plainly: Cell viability: MTT assay. It counts as cell-based, human. To be noted: 1 μg/mL. In short, it runs like this:
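Differentiated U937 cells were exposed to compound at 1 or 10 μg/mL either 4 h in 5% FCS RPMI1640 or 24 h in 10% FCS RPMI1640, then given MTT for 1 h, DMSO-solubilised and read at 550 nm. Percent viability loss versus 0.5% DMSO vehicle; apparent gains appear negative.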
(Formazan colour is commonly taken as a measure of viable cells.)

For data set [2], the system named is Poly I:C-induced ICAM-1 expression in BEAS2B cells. Put plainly: Poly I:C-induced ICAM-1 expression in BEAS2B cells. It is filed as cell-based. To be noted: Homo sapiens, BEAS-2B, read-out: Poly IC induced ICAM1 in BEAS2B IC50. In short, it runs like this: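 BEAS2B human bronchial epithelial cells pre-incubated with compound for 2 hr, then transfected with 1 μg/mL poly I:C plus Oligofectamine. At 18 hr, surface ICAM-1 measured by cell-based ELISA (HRP, OD450–655). Signal corrected for cell number by crystal violet OD595.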

For another data set, the target named is cSrc (Homo sapiens (Human), UniProt P12931). Put plainly: c-Src enzyme inhibition (FRET, Z-LYTE). It counts as biochemical. In short, it runs like this: (§2)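 Z-LYTE FRET kinase assay: enzyme (3000 or 2000 ng/mL stock, respectively) preincubated 2 h at RT with compound (4–0.004 μg/mL stocks), then FRET peptide plus ATP (800 μM stock for c-Src, 60 μM for Syk) added for 1 h. Protease development 1 h; phosphorylation from coumarin/fluorescein emission ratio.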
cSrc, sequence (P12931 whole entry, looked up): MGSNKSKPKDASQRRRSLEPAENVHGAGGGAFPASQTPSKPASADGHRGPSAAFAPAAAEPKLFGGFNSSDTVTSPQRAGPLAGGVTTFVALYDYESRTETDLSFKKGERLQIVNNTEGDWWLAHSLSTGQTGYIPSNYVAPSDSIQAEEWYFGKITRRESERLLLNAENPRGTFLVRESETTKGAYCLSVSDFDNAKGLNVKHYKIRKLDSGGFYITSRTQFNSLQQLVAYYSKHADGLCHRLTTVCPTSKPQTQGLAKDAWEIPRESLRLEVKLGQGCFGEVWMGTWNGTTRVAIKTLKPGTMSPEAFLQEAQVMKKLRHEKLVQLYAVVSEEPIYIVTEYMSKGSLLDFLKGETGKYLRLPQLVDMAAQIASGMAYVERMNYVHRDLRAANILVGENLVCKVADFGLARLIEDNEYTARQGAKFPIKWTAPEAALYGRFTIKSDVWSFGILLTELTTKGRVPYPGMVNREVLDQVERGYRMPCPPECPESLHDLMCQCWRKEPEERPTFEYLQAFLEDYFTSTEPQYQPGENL

For a further data set, the target named is Syk (Homo sapiens (Human), UniProt P43405). The data set is described as follows: Syk enzyme inhibition (FRET, Z-LYTE). It is filed as biochemical. The method in brief: as §2
The target of another data set is p38 MAPKα (Homo sapiens (Human), UniProt Q16539). The data set is described as follows: p38 MAPKα enzyme inhibition (FRET, Z-LYTE). It is filed as biochemical.
p38 MAPKα, sequence (Q16539 whole entry): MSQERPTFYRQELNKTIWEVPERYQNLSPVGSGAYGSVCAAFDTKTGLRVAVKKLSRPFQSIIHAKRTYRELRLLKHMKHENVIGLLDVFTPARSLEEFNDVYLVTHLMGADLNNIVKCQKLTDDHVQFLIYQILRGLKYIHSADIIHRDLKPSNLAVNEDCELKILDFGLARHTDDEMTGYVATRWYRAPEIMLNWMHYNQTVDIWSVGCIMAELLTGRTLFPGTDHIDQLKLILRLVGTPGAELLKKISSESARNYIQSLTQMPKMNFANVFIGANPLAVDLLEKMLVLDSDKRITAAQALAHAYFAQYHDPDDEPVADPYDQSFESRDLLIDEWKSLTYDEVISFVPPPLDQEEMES
The target of a further data set is GSK3α (Homo sapiens (Human), UniProt P49840). The data set is described as follows: GSK 3α enzyme inhibition (FRET, Z-LYTE). It counts as biochemical. In short, it runs like this:
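GSK3α (500 ng/mL stock) was preincubated 2 hr at RT with compound (4 to 0.004 μg/mL stocks), then FRET peptide (8 μM stock) and ATP (40 μM stock) added for 1 hr. Protease development for 1 hr cleaved unphosphorylated peptide; coumarin/fluorescein emission ratio reported phosphorylation.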

In data set [3] the test system is LPS-induced IL-8 release in d-U937 cells. The data set is described as follows: LPS-induced IL-8 release in d-U937 cells. It is filed as cell-based. To be noted: Homo sapiens, dU937, read-out: LPS Induced Release of Cytokine in d-937 Cells IL-8 IC50. In short, it runs like this: as §1

GSK3α, sequence (P49840 whole entry): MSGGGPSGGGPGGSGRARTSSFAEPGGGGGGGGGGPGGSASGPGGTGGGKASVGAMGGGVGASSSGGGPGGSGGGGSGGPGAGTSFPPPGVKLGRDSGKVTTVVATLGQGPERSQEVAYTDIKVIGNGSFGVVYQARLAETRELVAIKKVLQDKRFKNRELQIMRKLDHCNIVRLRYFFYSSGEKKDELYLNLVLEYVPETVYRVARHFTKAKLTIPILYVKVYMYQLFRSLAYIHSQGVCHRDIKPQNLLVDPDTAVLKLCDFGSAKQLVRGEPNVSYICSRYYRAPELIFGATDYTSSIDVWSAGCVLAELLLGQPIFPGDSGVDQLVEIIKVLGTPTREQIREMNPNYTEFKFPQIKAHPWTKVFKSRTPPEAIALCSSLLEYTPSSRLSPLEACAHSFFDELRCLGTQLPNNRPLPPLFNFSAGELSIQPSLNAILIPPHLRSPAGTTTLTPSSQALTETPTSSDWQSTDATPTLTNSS

On to `Cc1n[nH]c2cc(Nc3nccc(Oc4ccc(NC(=O)Nc5cc(C(C)(C)C)nn5-c5ccc(OCCN6CCOCC6)cc5)c5ccccc45)n3)ccc12` [Example 71, 1-(3-(tert-butyl)-1-(4-(2-morpholinoethoxy)phenyl)-1H-pyrazol-5-yl)-3-(4-((2-((3-methyl-1H-indazol-6-yl)amino)pyrimidin-4-yl)oxy)naphthalen-1-yl)urea], for which the EC50 in data set [1] is 11.1 nM. The “MTT Assay Cell viability at time point in d-U937 cells 4 h” value with d-U937 cells is “−ve (−ve and +ve indicate that the value is below and above respectively, the no significant effect threshold, defined as 30% inhibition at 1 μg/mL at the time point indicated.)”. In the data set with d-U937 cells, the “MTT Assay Cell viability at time point in d-U937 cells 24 h” value is “−ve (−ve and +ve indicate that the value is below and above respectively, the no significant effect threshold, defined as 30% inhibition at 1 μg/mL at the time point indicated.)”. The 50% inhibitory concentration (IC50) was 2.2 nM in data set [2]; 12 nM against cSrc; 9 nM at Syk; 269 nM against p38 MAPKα; 3440 nM on GSK3α; > 1330 nM in data set [3].

For `Cc1cc2cc(Nc3nccc(Oc4ccc(NC(=O)Nc5cc(C(C)(C)C)nn5-c5ccc(OCCN6CCOCC6)cc5)c5ccccc45)n3)ccc2[nH]1` [Example 66, 1-(3-(tert-butyl)-1-(4-(2-morpholinoethoxy)phenyl)-1H-pyrazol-5-yl)-3-(4-((2-((2-methyl-1H-indol-5-yl)amino)pyrimidin-4-yl)oxy)naphthalen-1-yl)urea], in data set [1], the EC50 was determined as 6.4 nM. The “MTT Assay Cell viability at time point in d-U937 cells 4 h” value with d-U937 cells was “−ve (−ve and +ve indicate that the value is below and above respectively, the no significant effect threshold, defined as 30% inhibition at 1 μg/mL at the time point indicated.)”. The “MTT Assay Cell viability at time point in d-U937 cells 24 h” value with d-U937 cells is “−ve (−ve and +ve indicate that the value is below and above respectively, the no significant effect threshold, defined as 30% inhibition at 1 μg/mL at the time point indicated.)”. The IC50 in data set [2] stood at 6.9 nM; at cSrc, 15 nM; against Syk, 19 nM; at p38 MAPKα it was 335 nM; against GSK3α, 2850 nM; in data set [3], 16 nM.

Consider `Cc1cc(Nc2nccc(Oc3ccc(NC(=O)Nc4cc(C(C)C)nn4-c4cccc(OCCN5CCOCC5)c4)c4ccccc34)n2)cc2cn[nH]c12` [Example 55, 1-(3-isopropyl-1-(3-(2-morpholinoethoxy)phenyl)-1H-pyrazol-5-yl)-3-(4-((2-((7-methyl-1H-indazol-5-yl)amino)pyrimidin-4-yl)oxy)naphthalen-1-yl)urea], for which, in data set [1], the EC50 came to 3.9 nM. In the data set on d-U937 cells, the “MTT Assay Cell viability at time point in d-U937 cells 4 h” value is “−ve (−ve and +ve indicate that the value is below and above respectively, the no significant effect threshold, defined as 30% inhibition at 1 μg/mL at the time point indicated.)”. For the same compound, the “MTT Assay Cell viability at time point in d-U937 cells 24 h” value with d-U937 cells is “−ve (−ve and +ve indicate that the value is below and above respectively, the no significant effect threshold, defined as 30% inhibition at 1 μg/mL at the time point indicated.)”. The IC50 is 50.8 nM in data set [2]; < 1 nM against cSrc; < 1 nM on Syk; 7 nM at p38 MAPKα; > 13500 nM against GSK3α; 43.4 nM in data set [3].

As to `CC(C)(C)c1cc(NC(=O)Nc2ccc(Oc3ccnc(Nc4ccc5c(c4)CCC5)n3)c3ccccc23)n(-c2ccc(OCCN3CCOCC3)cc2)n1` [Example 59, 1-(3-(tert-butyl)-1-(4-(2-morpholinoethoxy)phenyl)-1H-pyrazol-5-yl)-3-(4-((2-((2,3-dihydro-1H-inden-5-yl)amino)pyrimidin-4-yl)oxy)naphthalen-1-yl)urea], in data set [1], the EC50 turned out to be 12.6 nM. Also, the “MTT Assay Cell viability at time point in d-U937 cells 4 h” value with d-U937 cells is “−ve (−ve and +ve indicate that the value is below and above respectively, the no significant effect threshold, defined as 30% inhibition at 1 μg/mL at the time point indicated.)”. Further, the “MTT Assay Cell viability at time point in d-U937 cells 24 h” value in the data set on d-U937 cells is “−ve (−ve and +ve indicate that the value is below and above respectively, the no significant effect threshold, defined as 30% inhibition at 1 μg/mL at the time point indicated.)”. Moreover, the IC50 in data set [2] was 0.1 nM; against cSrc, 23 nM; on Syk, 28 nM; against p38 MAPKα, 98 nM; against GSK3α, > 9230 nM; in data set [3], 16.8 nM.

On to `CC(C)(C)c1cc(NC(=O)Nc2ccc(Oc3ccnc(Nc4ccc5scnc5c4)n3)c3ccccc23)n(-c2ccc(OCCN3CCOCC3)cc2)n1` [Example 79, 1-(4-((2-(benzo[d]thiazol-5-ylamino)pyrimidin-4-yl)oxy)naphthalen-1-yl)-3-(3-(tert-butyl)-1-(4-(2-morpholinoethoxy)phenyl)-1H-pyrazol-5-yl)urea], for which the EC50 in data set [1] was found to be 10.5 nM. Also, in the data set with d-U937 cells, the “MTT Assay Cell viability at time point in d-U937 cells 4 h” value is “−ve (−ve and +ve indicate that the value is below and above respectively, the no significant effect threshold, defined as 30% inhibition at 1 μg/mL at the time point indicated.)”. The “MTT Assay Cell viability at time point in d-U937 cells 24 h” value in the data set with d-U937 cells was “−ve (−ve and +ve indicate that the value is below and above respectively, the no significant effect threshold, defined as 30% inhibition at 1 μg/mL at the time point indicated.)”. For the same compound, the IC50 in data set [2] turned out to be 7 nM; against cSrc, 8 nM; against Syk, 36 nM; on p38 MAPKα, 149 nM; against GSK3α, 730 nM; in data set [3] it was 12.4 nM.

Regarding `Cc1cc(Nc2nccc(Oc3ccc(NC(=O)Nc4cc(C(C)(C)C)nn4-c4ccc(=O)n(CCO)c4)c4ccccc34)n2)cc2cn[nH]c12` [Example 87, 1-(3-(tert-butyl)-1-(1-(2-hydroxyethyl)-6-oxo-1,6-dihydropyridin-3-yl)-1H-pyrazol-5-yl)-3-(4-((2-((7-methyl-1H-indazol-5-yl)amino)pyrimidin-4-yl)oxy)naphthalen-1-yl)urea], the EC50 in data set [1] amounted to 1.7 nM. Also, in the data set with d-U937 cells, the “MTT Assay Cell viability at time point in d-U937 cells 4 h” value is “−ve (−ve and +ve indicate that the value is below and above respectively, the no significant effect threshold, defined as 30% inhibition at 1 μg/mL at the time point indicated.)”. In addition, in the data set with d-U937 cells, the “MTT Assay Cell viability at time point in d-U937 cells 24 h” value was “−ve (−ve and +ve indicate that the value is below and above respectively, the no significant effect threshold, defined as 30% inhibition at 1 μg/mL at the time point indicated.)”. The IC50 in data set [2] was found to be 1 nM; against cSrc, 2 nM; against Syk, 4 nM; against p38 MAPKα, 45 nM; on GSK3α, 1100 nM; in data set [3], 2.3 nM.

As to `CC(C)c1cc(NC(=O)Nc2ccc(Oc3ccnc(Nc4ccc5[nH]ncc5c4)n3)c3ccccc23)n(-c2ccc(=O)n(CCO)c2)n1` [Example 85, 1-(4-((2-((1H-indazol-5-yl)amino)pyrimidin-4-yl)oxy)naphthalen-1-yl)-3-(1-(1-(2-hydroxyethyl)-6-oxo-1,6-dihydropyridin-3-yl)-3-isopropyl-1H-pyrazol-5-yl)urea], the EC50 in data set [1] amounted to 19.7 nM. For the same compound, the “MTT Assay Cell viability at time point in d-U937 cells 4 h” value in the data set on d-U937 cells is “−ve (−ve and +ve indicate that the value is below and above respectively, the no significant effect threshold, defined as 30% inhibition at 1 μg/mL at the time point indicated.)”. For the same compound, in the data set with d-U937 cells, the “MTT Assay Cell viability at time point in d-U937 cells 24 h” value is “−ve (−ve and +ve indicate that the value is below and above respectively, the no significant effect threshold, defined as 30% inhibition at 1 μg/mL at the time point indicated.)”. For the same compound, the IC50 in data set [2] was 70.2 nM; against cSrc, < 2 nM; against Syk, 15 nM; on p38 MAPKα it was 8 nM; at GSK3α, 2530 nM; in data set [3], 54.4 nM.
